According to patent US20110190137A1, “METHOD TO INHIBIT ETHYLENE RESPONSES IN PLANTS” (priority 2003, published 2011):

Legend:
[1] = tested on: ethylene-induced epinasty in Patio variety tomato plants; test: Tomato epinasty test, spray application treatment; format: in vivo; settings: for Spray @10 ppm: visual rating of protection against ethylene-induced epinasty: spray 10 ppm in 10% acetone/90% water, 0.05% Silwett L-77, 10 ppm ethylene, scale 0 to 10 (10 = complete protection)
Procedure: (§1) Objective: The test procedure is designed to determine the ability of an experimental compound to block the epinastic growth response induced by ethylene in tomato plants when the experimental compound is administered either as a volatile gas or as a component of a spray solution.
(§2) Treatment chambers are of an appropriate size for the test plants and are airtight. Each is fitted with a reusable septum to be used for injection of ethylene. Test plants are Patio variety tomato seedlings planted two plants per three inch square plastic pot.
Spray application treatment entails using a DeVilbiss atomizer to completely cover all foliage and stems of two pots of Patio var. tomato plants with the appropriate amount of experimental compound dissolved in 10% acetone/90% water with 0.05% Silwett L-77 surfactant. Plants are air-dried in a drying hood for four hours then transferred to a 4.8 L polystyrene chamber which is sealed.
Ethylene gas equal to 10 ppm v/v final concentration is injected into the sealed chamber. Sixteen hours later the chambers are opened in an exhaust hood, allowed to air and the plants scored visually for the degree of protection against ethylene-induced epinasty conferred by the experimental compound when compared to ethylene treated and untreated controls on a scale of 0 to 10. A rating of 10 means complete protection. A rating of 0 means no protection from the effects of ethylene.

[2] = tested on: ethylene-induced epinasty in Patio variety tomato plants; test: Tomato epinasty test, volatile gas treatment; format: in vivo; settings: for Gas @ 10 ppm: visual rating of protection against ethylene-induced epinasty: gas 10 ppm v/v, 10 ppm ethylene, scale 0 to 10 (10 = complete protection); for Gas @ 1000 ppm: visual rating of protection against ethylene-induced epinasty: gas 1000 ppm v/v, 10 ppm ethylene after 4 h, scored 16 h later, scale 0 (no protection) to 10 (complete protection)
Procedure: as §1, §2
Volatile gas treatment entails placing two pots of Patio var. tomatoes into a polystyrene 4.8 L volume treatment chamber along with one-half (upper or lower section) of a 50×9 mm plastic Petri dish containing a Gelman filter pad. The appropriate amount of experimental compound, dissolved in 1.0 ml acetone, is pipetted onto the filter pad and the chamber immediately sealed. Four hours later ethylene gas equal to 10 ppm v/v final concentration is injected into the sealed chamber. Sixteen hours later the chambers are opened in an exhaust hood, allowed to air and the plants scored visually for the degree of protection against ethylene-induced epinasty conferred by the experimental compound when compared to ethylene treated and untreated controls on a scale of 0 to 10. A rating of 10 means complete protection. A rating of 0 means no protection from the effects of ethylene. Gas treatment concentrations are volume/volume.

C1=C(Cc2ccccc2)C1 [Compound 17]
Spray @10 ppm: visual rating of protection against ethylene-induced epinasty [1]: 2
Gas @ 10 ppm: visual rating of protection against ethylene-induced epinasty [2]: 9

CC(=O)OCOC(=O)CCC1=C(Br)C1 [Compound 75]
Spray @10 ppm: visual rating of protection against ethylene-induced epinasty [1]: 0
Gas @ 10 ppm: visual rating of protection against ethylene-induced epinasty [2]: 10

C1=C(CC2CCCC2)C1 [Compound 31]
Spray @10 ppm: visual rating of protection against ethylene-induced epinasty [1]: 7.5
Gas @ 10 ppm: visual rating of protection against ethylene-induced epinasty [2]: 9

CCCCCC1(C)C=C1 [Compound 72, 3-Methyl-3-pentyl-cyclopropene]
Spray @10 ppm: visual rating of protection against ethylene-induced epinasty [1]: 2
Gas @ 10 ppm: visual rating of protection against ethylene-induced epinasty [2]: 0
Gas @ 1000 ppm: visual rating of protection against ethylene-induced epinasty [2]: 9

C1=C(CCCC2OCCO2)C1 [Compound 33]
Spray @10 ppm: visual rating of protection against ethylene-induced epinasty [1]: 0
Gas @ 10 ppm: visual rating of protection against ethylene-induced epinasty [2]: 8

Cc1ccc(C(=O)OCCCCC2=CC2)cc1 [Compound 44, 1-(4-Methylphenylcarbonyloxybutyl)-cyclopropene]
Spray @10 ppm: visual rating of protection against ethylene-induced epinasty [1]: 0
Gas @ 10 ppm: visual rating of protection against ethylene-induced epinasty [2]: 0
Gas @ 1000 ppm: visual rating of protection against ethylene-induced epinasty [2]: 7

O=C(O)CCC1=C(Br)C1 [Compound 77]
Spray @10 ppm: visual rating of protection against ethylene-induced epinasty [1]: 2
Gas @ 10 ppm: visual rating of protection against ethylene-induced epinasty [2]: 8

C1=C(CCc2ccccc2)C1 [Compound 18]
Spray @10 ppm: visual rating of protection against ethylene-induced epinasty [1]: 6
Gas @ 10 ppm: visual rating of protection against ethylene-induced epinasty [2]: 10

C1=C(CCCc2ccccc2)C1 [Compound 25]
Spray @10 ppm: visual rating of protection against ethylene-induced epinasty [1]: 10
Gas @ 10 ppm: visual rating of protection against ethylene-induced epinasty [2]: 10

CS(=O)(=O)OCCC1=CC1 [Compound 68, 1-(2-Methanesulfonyloxyethyl)-cyclopropene]
Spray @10 ppm: visual rating of protection against ethylene-induced epinasty [1]: 5
Gas @ 10 ppm: visual rating of protection against ethylene-induced epinasty [2]: 3
Gas @ 1000 ppm: visual rating of protection against ethylene-induced epinasty [2]: 10

1-((2-Carboxy-N-morpholino)ethyl)-cyclopropene [Compound 15]
Spray @10 ppm: visual rating of protection against ethylene-induced epinasty [1]: 0
Gas @ 10 ppm: visual rating of protection against ethylene-induced epinasty [2]: 10

O=C(OCCC1=CC1)c1cc2ccccc2o1 [Compound 49]
Spray @10 ppm: visual rating of protection against ethylene-induced epinasty [1]: 0
Gas @ 10 ppm: visual rating of protection against ethylene-induced epinasty [2]: 0
Gas @ 343.4 ppm: rating of protection against epinasty ([2]; gas 343.4 ppm (in cell), scale 0 to 10): 9(@343.4

CS(=O)(=O)OCCCCC1=CC1 [Compound 85, 1-(4-Methanesulfonyloxybutyl)-cyclopropene]
Spray @10 ppm: visual rating of protection against ethylene-induced epinasty [1]: 0
Gas @ 10 ppm: visual rating of protection against ethylene-induced epinasty [2]: 0
Gas @ 1000 ppm: visual rating of protection against ethylene-induced epinasty [2]: 10

C[Si](C)(CCCCCCC1=CC1)c1ccccc1 [Compound 4, 1-(6-(Phenyldimethylsilyl)-hexyl)-cyclopropene]
Spray @10 ppm: visual rating of protection against ethylene-induced epinasty [1]: 10
Gas @ 10 ppm: visual rating of protection against ethylene-induced epinasty [2]: 4

C1=C(CCC2CCCCC2)C1 [Compound 21]
Spray @10 ppm: visual rating of protection against ethylene-induced epinasty [1]: 10
Gas @ 10 ppm: visual rating of protection against ethylene-induced epinasty [2]: 10

CC[Si](CC)(CC)C1=C(C)C1 [Compound 81, 1-Triethylsilyl-2-methylcyclopropene]
Spray @10 ppm: visual rating of protection against ethylene-induced epinasty [1]: 0
Gas @ 10 ppm: visual rating of protection against ethylene-induced epinasty [2]: 0
Gas @ 1000 ppm: visual rating of protection against ethylene-induced epinasty [2]: 10

CS(=O)(=O)OCCCCCCCC1=CC1 [Compound 69, 1-(7-Methanesulfonyloxyheptyl)-cyclopropene]
Spray @10 ppm: visual rating of protection against ethylene-induced epinasty [1]: 0
Gas @ 10 ppm: visual rating of protection against ethylene-induced epinasty [2]: 0
Gas @ 1000 ppm: visual rating of protection against ethylene-induced epinasty [2]: 8

COc1ccc(OCC2(C)C=C2)cc1 [Compound 16]
Spray @10 ppm: visual rating of protection against ethylene-induced epinasty [1]: 4.5
Gas @ 10 ppm: visual rating of protection against ethylene-induced epinasty [2]: 3.75
Gas @ 500 ppm: rating of protection against epinasty ([2]; gas 500 ppm, scale 0 to 10): 10^c^

CCCCCCCCC1=C(Br)C1 [Compound 71, 1-Bromo-2-octyl-cyclopropene]
Spray @10 ppm: visual rating of protection against ethylene-induced epinasty [1]: 3
Gas @ 10 ppm: visual rating of protection against ethylene-induced epinasty [2]: 1
Gas @ 1000 ppm: visual rating of protection against ethylene-induced epinasty [2]: 10

C1=C(CC2CCCCCC2)C1 [Compound 22]
Spray @10 ppm: visual rating of protection against ethylene-induced epinasty [1]: 10
Gas @ 10 ppm: visual rating of protection against ethylene-induced epinasty [2]: 9

CC(C)(C1=CC1)c1ccccc1 [Compound 5, 1-(α,α-dimethylbenzyl)-cyclopropene]
Spray @10 ppm: visual rating of protection against ethylene-induced epinasty [1]: 2
Gas @ 10 ppm: visual rating of protection against ethylene-induced epinasty [2]: 5

O=S(=O)(OCCC1=CC1)c1ccccc1 [Compound 10, 2-(2-Benzenesulfonyloxyethyl)-cyclopropene]
Spray @10 ppm: visual rating of protection against ethylene-induced epinasty [1]: 10
Gas @ 10 ppm: visual rating of protection against ethylene-induced epinasty [2]: 10

CC1(Cc2ccccc2)C=C1 [Compound 20]
Spray @10 ppm: visual rating of protection against ethylene-induced epinasty [1]: 0
Gas @ 10 ppm: visual rating of protection against ethylene-induced epinasty [2]: 0
Gas @ 1000 ppm: visual rating of protection against ethylene-induced epinasty [2]: 7

COc1cccc(C(O)C2=C(C)C2)c1 (stereo not drawn) [Compound 39, 1-Methyl-2-(hydroxy(3-methoxyphenyl)methyl)cyclopropene]
Spray @10 ppm: visual rating of protection against ethylene-induced epinasty [1]: 0
Gas @ 10 ppm: visual rating of protection against ethylene-induced epinasty [2]: 2
Gas @ 1000 ppm: visual rating of protection against ethylene-induced epinasty [2]: 10

Cc1cccc(CC2=CC2)c1 [Compound 29]
Spray @10 ppm: visual rating of protection against ethylene-induced epinasty [1]: 10
Gas @ 10 ppm: visual rating of protection against ethylene-induced epinasty [2]: 10

CCC1=C(n2cc(Br)cn2)C1 [Compound 11, 2-(1-(4-Bromopyrazole))-1-ethylcyclopropene]
Spray @10 ppm: visual rating of protection against ethylene-induced epinasty [1]: 0
Gas @ 10 ppm: visual rating of protection against ethylene-induced epinasty [2]: 2
Gas, tested at 600 ppm: rating of protection against epinasty ([2]; gas 600 ppm (footnote a), scale 0 to 10): 8^a

CCCCCCCCC1=C(B(O)O)C1 [Compound 86, 2-Octyl-1-(boronic acid)-cyclopropene]
Spray @10 ppm: visual rating of protection against ethylene-induced epinasty [1]: 0
Gas @ 10 ppm: visual rating of protection against ethylene-induced epinasty [2]: 10

CCSCCCCCCCC1=CC1 [Compound 70, 1-(7-Ethanethioheptyl)-cyclopropene]
Spray @10 ppm: visual rating of protection against ethylene-induced epinasty [1]: 10
Gas @ 10 ppm: visual rating of protection against ethylene-induced epinasty [2]: 2

CCOP(=S)(OCC)SCC1=C(CC)C1 [Compound 84, 1-(Diethoxy-thiophosphorylthiomethyl)-2-ethylcyclopropene]
Spray @10 ppm: visual rating of protection against ethylene-induced epinasty [1]: 0
Gas @ 10 ppm: visual rating of protection against ethylene-induced epinasty [2]: 0
Gas @ 1000 ppm: visual rating of protection against ethylene-induced epinasty [2]: 10

CCCCCCCC1=C(C)C1 [Compound 74, 1-Heptyl-2-methyl-cyclopropene]
Spray @10 ppm: visual rating of protection against ethylene-induced epinasty [1]: 0
Gas @ 10 ppm: visual rating of protection against ethylene-induced epinasty [2]: 0
Gas @ 1000 ppm: visual rating of protection against ethylene-induced epinasty [2]: 10

CC1(COc2ccccc2)C=C1 [Compound 7, 3-Methyl-3-Phenoxymethylcycloprop-2-ene]
Spray @10 ppm: visual rating of protection against ethylene-induced epinasty [1]: 2
Gas @ 10 ppm: visual rating of protection against ethylene-induced epinasty [2]: 4
Gas @ 1000 ppm: visual rating of protection against ethylene-induced epinasty [2]: 10

C1=C(CCCCCCCn2cccn2)C1 [Compound 32]
Spray @10 ppm: visual rating of protection against ethylene-induced epinasty [1]: 10
Gas @ 10 ppm: visual rating of protection against ethylene-induced epinasty [2]: 3
Gas @ 1000 ppm: visual rating of protection against ethylene-induced epinasty [2]: 10

O=C(OCCC1=CC1)c1ccc(-n2cccc2)cc1 [Compound 62]
Spray @10 ppm: visual rating of protection against ethylene-induced epinasty [1]: 0
Gas @ 10 ppm: visual rating of protection against ethylene-induced epinasty [2]: 0
Gas @ 509 ppm: rating of protection against epinasty ([2]; gas 509 ppm (in cell), scale 0 to 10): 10(@509

CC(C)(C)OC(=O)N1CC(C(=O)OCCC2=CC2)CS1 (stereo not drawn) [Compound 52]
Spray @10 ppm: visual rating of protection against ethylene-induced epinasty [1]: 2
Spray @ 1000 ppm: rating of protection against epinasty ([1]; spray 1000 ppm (in cell), scale 0 to 10): 10
Gas @ 10 ppm: visual rating of protection against ethylene-induced epinasty [2]: 0
Gas @ 1000 ppm: visual rating of protection against ethylene-induced epinasty [2]: 3

C1=C(CCCCc2ccccc2)C1 [Compound 27]
Spray @10 ppm: visual rating of protection against ethylene-induced epinasty [1]: 10
Gas @ 10 ppm: visual rating of protection against ethylene-induced epinasty [2]: 10

Clc1ccc(CCC2=CC2)cc1 [Compound 28]
Spray @10 ppm: visual rating of protection against ethylene-induced epinasty [1]: 8
Gas @ 10 ppm: visual rating of protection against ethylene-induced epinasty [2]: 9.5

CC1=C([Si](C)(C)C)C1(C)C [Compound 79, 1-Trimethylsilyl-2,3,3-trimethylcyclopropene]
Gas @ 10 ppm: visual rating of protection against ethylene-induced epinasty [2]: 10

O=C(OCCC1=CC1)c1ccoc1 [Compound 48]
Gas @ 10 ppm: visual rating of protection against ethylene-induced epinasty [2]: 10
